Data as given in patent US12410391B2, “In vitro cell culture mucus systems” (The University of North Carolina at Chapel Hill, priority 2018, dated 2025).

Tested on: human colonic epithelium (monolayer from human colonic stem cells)
Assay: VIP-stimulated water secretion into the apical reservoir under ALI culture
Assay type: cell-based
Experimental: The inserts were rinsed with PBS×1 prior to cell plating. Intestinal epithelial cells were passaged according to the procedure described above except that the cells were suspended in expansion medium (EM-Table 1) and plated directly onto the top compartment of Transwell inserts. Cells from 1 well of the 6-well plate were dispersed into 6 separate 12-well Transwell inserts (1 mL in the upper [apical] reservoir, and 2 mL in the lower [basal] reservoir). The medium was exchanged every 48 h. To induce cell differentiation and mucus production, the medium was switched to differentiation medium (DM-Table 1) after 5 days. In the submerged culture, 1 mL DM was added in the apical reservoir and 2 mL in the basal reservoir. The medium was exchanged every 48 h thereafter. In the ALI culture, the medium in the apical reservoir was completely aspirated, 1 mL DM or DM-VIP (DM containing 330 ng/mL VIP [AnaSpec, #AS-22872]) was added to the basal reservoir, and medium was exchanged every 24 h thereafter. By day 10, the system was suitable for characterization and cytokine assay.
To verify the function of VIP to stimulate water secretion, human colonic stem cells were cultured under EM for 5 days. At day 5, the basal medium was switched to DM with varying VIP concentration and the cells placed under the ALI culture conditions. After 24 h, the water accumulated in the apical reservoir was collected and weighed with an analytical balance. In the absence of VIP, the accumulation of water in the apical reservoir was not measurable. […] A plateau was reached when VIP concentration was >1 ng/mL. At this saturating concentration, approximately 42 mg/cm^2 water accumulated after a 24 h incubation with VIP, corresponding to a water depth in the reservoir of 420 μm.

vasoactive intestinal peptide [VIP] was tested. Which “VIP concentration at which plateau of water secretion was reached” value (ALI culture, 24 h) did it give?
The value was > 1 ng/mL.

And the “water accumulated in apical reservoir” value (saturating VIP concentration, 24 h incubation)?
The value was “approximately 42 mg/cm^2”.

And the “water depth in the reservoir” value (saturating VIP concentration, 24 h incubation, corresponds to the accumulated water)?
The value was 420 μm.
